Test results taken from patent US10604514B2, “6-(5-membered heteroaryl)isoquinolin-3-yl carboxamides and preparation and use thereof” (Samumed, LLC, priority 2017, dated 2020).
Where two headings read alike, the source gives them in different places.

How the values were obtained:
[1] = system: Wnt activity (Sp5-Luc reporter in SW480 colon carcinoma cells); test: Wnt activity screening assay (Sp5-Luc reporter gene assay); format: cell-based, human; details: Homo sapiens; for EC50: Sp5-Luc reporter, SW480 cells, 36 to 48 hours; for inhibition at 10 µM: SW480, read-out: percent inhibition at 10 μM
Procedure, shortened: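 Compounds at 10 points (1:3 steps, top 10 μM, 0.1% DMSO final) were incubated 36 to 48 h at 37° C with stable Sp5-Luc SW480 reporter cells in 1% FBS medium. Luciferase luminescence was then read and expressed relative to DMSO-only cells. Four-parameter variable-slope fitting yielded EC50 values.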

[2] = molecular target: GSK3β kinase (Homo sapiens (Human), UniProt P49841); test: GSK3β kinase assay (Ser/Thr 09 peptide Z-lyte, FRET); format: biochemical; details: method text calls the value IC50;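 further: Coumarin/fluorescein emission ratio converted to percent phosphorylation against unphosphorylated (0%) and phosphorylated (100%) controls, 1 h compound incubation at room temperature, 11-point threefold dilutions from 10 µM, run in duplicate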
[3] = system: Tau phosphorylation at Ser396 (pSer396), SH-SY5Y cells; test: Tau phosphorylation at Ser396 (pSer396) in SH-SY5Y cells, ELISA/western blot; format: cell-based, human; details: Homo sapiens; SH-SY5Y cells, overnight (16-18 h); read-out: pSer396 Tau EC50;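 further: cell lysates probed for reduced Tau pSer396 via ELISA (colorimetric) or western blot (chemiluminescence), both with one shared pSer396 antibody, EC50 for lowering phosphorylation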
[4] = system: SW480 colon carcinoma cells; test: Cell viability assay (CellTiter-Glo) in SW480 cells; format: cell-based, human; details: Homo sapiens; for EC50: 96 h, cell viability, SW480 cells, four days, CellTiter-Glo; for inhibition at 10 µM: SW480, read-out: percent inhibition at 10 μM;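 on all read-outs here: SW480 cells stably carrying an Sp5-luciferase TCF/LEF reporter, luminescent ATP signal as viability measure, DMSO-treated cells as control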
[5] = system: LL29 cells (primary human fibroblasts derived from IPF patients), α-smooth muscle actin; test: Inhibition of fibrotic process: αSMA in TGF-β1-treated primary human fibroblasts from IPF patients (LL29 cells); format: cell-based; details: Homo sapiens, Fibroblast; for EC50: 96 h, % αSMA-positive LL29 cells, TGF-β1 20 ng/mL, 4 days
Procedure, shortened: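 Read-out is the percentage of αSMA-positive cells by high-content imaging, excluding SYTOX green-positive dead/apoptotic cells, normalized to TGF-β1-only wells on the same plate. LL29 cells were exposed for 4 days at 37 °C to 20 ng/mL TGF-β1 plus 11-point, 2-fold compound dilutions in 0.1% DMSO.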

[6] = system: IL-6; test: IL-6 inhibition in LPS-stimulated human peripheral blood mononuclear cells (HTRF); format: cell-based; details: Homo sapiens, PBMC; for EC50: IL-6, LPS-stimulated huPBMCs, HTRF
Procedure, shortened: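 EC50 from a 4-parameter fit of DMSO-normalized HTRF (665/620 nm) IL-6 signal, duplicates. Compound was added to fresh human PBMCs in 1% FBS RPMI for 2 h (top 10 μM, 3-fold, 0.25% DMSO) before 22 h stimulation with LPS at 50 ng/mL, 37 °C.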

[7] = molecular target: DYRK1A kinase (Homo sapiens (Human), UniProt Q13627); test: DYRK1A kinase assay (Ser/Thr 18 peptide Z-lyte, FRET)
[8] = DYRK1A kinase, method text calls the value IC50

GSK3β kinase, sequence (P49841 whole entry): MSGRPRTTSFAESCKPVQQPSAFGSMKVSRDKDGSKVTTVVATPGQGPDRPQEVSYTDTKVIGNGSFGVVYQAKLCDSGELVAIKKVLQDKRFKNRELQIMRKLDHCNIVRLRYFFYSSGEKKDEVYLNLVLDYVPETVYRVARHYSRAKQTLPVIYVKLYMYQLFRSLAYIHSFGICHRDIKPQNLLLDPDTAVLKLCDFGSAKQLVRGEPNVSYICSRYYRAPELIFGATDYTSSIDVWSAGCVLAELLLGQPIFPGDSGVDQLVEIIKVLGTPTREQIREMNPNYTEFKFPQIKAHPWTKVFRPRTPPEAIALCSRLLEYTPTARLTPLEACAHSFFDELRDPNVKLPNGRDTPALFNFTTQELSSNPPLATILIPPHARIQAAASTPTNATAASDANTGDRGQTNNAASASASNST

| SMILES | EC50 [1] | EC50 [2] | EC50 [3] | EC50 [4] | EC50 [6] | EC50 [7] | EC50 [7, 8] | inhibition at 10 µM [4] | EC50 [5] | inhibition at 10 µM [1] | inhibition at 10 µM ([5]; read-out: percent inhibition at 10 μM) | inhibition at 10 µM ([6]; read-out: percent value in parentheses below EC50 >10) |
| --- | --- | --- | --- | --- | --- | --- | --- | --- | --- | --- | --- | --- |
| [2H]c1c(NC(=O)CN2CCOCC2)ncc2ccc(-c3cnn(C)c3)cc12 [Compound 68, N-(6-(1-Methyl-1H-pyrazol-4-yl)isoquinolin-3-yl-4-d)-2-morpholinoacetamide] | 6.95 µM | 0.066 µM | 0.948 µM | > 10 µM | 4.06 µM | 0.007 µM | – | 47.2% | 1.53 µM | – | – | – |
| Cc1ncc(-c2ccc3cnc(NC(=O)[C@H]4CC[C@H](CN5CCOCC5)CC4)cc3c2)o1 [Compound 69, trans-N-(6-(2-methyloxazol-5-yl)isoquinolin-3-yl)-4-(morpholinomethyl)cyclohexane-1-carboxamide] | 0.927 µM | 0.07 µM | 0.516 µM | 1.7 µM | 1.02 µM | – | 0.003 µM | – | 0.21 µM | – | – | – |
| Cc1ncc(-c2ccc3cnc(NC(=O)[C@H]4CC[C@H](CN5CCN(C)CC5)CC4)cc3c2)o1 [Compound 70, trans-N-(6-(2-Methyloxazol-5-yl)isoquinolin-3-yl)-4-((4-methylpiperazin-1-yl)methyl)cyclohexane-1-carboxamide] | 1.11 µM | 0.073 µM | 0.307 µM | 1.72 µM | 0.952 µM | – | 0.002 µM | – | 0.124 µM | – | – | – |
| Cc1nnc(-c2ccc3cnc(NC(=O)N[C@H]4CCN(C)C[C@@H]4F)cc3c2)s1 [Compound 71, 1-((3S,4S)-3-Fluoro-1-methylpiperidin-4-yl)-3-(6-(5-methyl-1,3,4-thiadiazol-2-yl)isoquinolin-3-yl)urea] | > 10 µM | 0.014 µM | 0.25 µM | > 10 µM | 9.37 µM | – | 0.006 µM | 46.7% | 4.66 µM | 45.6% | – | – |

More lines, main results first:

| EC50 [1] | EC50 [2] | EC50 [3] | EC50 [4] | EC50 [6] | EC50 [7] | EC50 [7, 8] | SMILES | inhibition at 10 µM [4] | EC50 [5] | inhibition at 10 µM [1] | inhibition at 10 µM ([5]; read-out: percent inhibition at 10 μM) | inhibition at 10 µM ([6]; read-out: percent value in parentheses below EC50 >10) |
| --- | --- | --- | --- | --- | --- | --- | --- | --- | --- | --- | --- | --- |
| 3.31 µM | > 10 µM | 2.6 µM | 0.489 µM | 1.58 µM | 0.003 µM | – | [2H]C1([2H])N(c2cc(C(=O)Nc3cc4cc(-c5cnc(C)n5C)ccc4cn3)ccn2)C([2H])([2H])C([2H])([2H])C([2H])([2H])C1([2H])[2H] [Compound 72, N-(6-(1,2-Dimethyl-1H-imidazol-5-yl)isoquinolin-3-yl)-2-(piperidin-1-yl-d10)isonicotinamide] | – | 0.937 µM | – | – | – |
| 0.743 µM | 2.58 µM | > 10 µM | 1.6 µM | 7.64 µM | 0.003 µM | – | [2H]c1c([2H])c([2H])c(C(=O)Nc2cc3cc(-c4cncn4C)ccc3cn2)c(F)c1[2H] [Compound 80] | – | 2.71 µM | – | – | – |
| > 10 µM | 1.51 µM | 5.9 µM | 3.31 µM | > 10 µM | 0.003 µM | – | [2H]c1c([2H])c([2H])c(C(=O)Nc2cc3cc(-c4cncn4C)ccc3cn2)c(Cl)c1[2H] [Compound 82] | – | > 10 µM | 29.6% | 31.2% | 47.6% |
| > 10 µM | 0.874 µM | > 10 µM | 0.305 µM | 1.13 µM | 0.002 µM | – | [2H]c1c([2H])c(C(=O)Nc2cc3cc(-c4cncn4C)ccc3cn2)c([2H])c([2H])c1Cl [Compound 83, 4-Chloro-N-(6-(1-methyl-1H-imidazol-5-yl)isoquinolin-3-yl)benzamide-2,3,5,6-d4] | – | 0.483 µM | 29.7% | – | – |
| > 10 µM | 1.05 µM | 1.4 µM | 0.494 µM | 1.3 µM | 0.002 µM | – | [2H]C([2H])([2H])c1ccc(C(=O)Nc2cc3cc(-c4cncn4C)ccc3cn2)cc1 [Compound 84, 4-(Methyl-d3)-N-(6-(1-methyl-1H-imidazol-5-yl)isoquinolin-3-yl)benzamide] | – | 0.63 µM | 25.5% | – | – |
